In ChEMBL document CHEMBL1201862, “PubChem BioAssay data set” (2004):
Several values for one entry are separate records, joined by “and”; a condition that tells them apart may be missing. Identical values can stand only once.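 Exposure lasted 48 hours, with cells grown in 96-well plates and compounds tested at five concentrations. GI50 = concentration required for 50% inhibition of growth.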 Activity calls are given as the source filed them. No stated cut-off is given here; in the data, active = GI50 up to about 1.1 µM and inactive = higher.

Legend:
Assay in all cases: NCI anticancer screen, dose series, 48 h
786-0 = tested on: 786-0
A498 = tested on: A498
DU-145 = tested on: DU-145
HCT-116 = tested on: HCT-116
HT-29 = tested on: HT-29
K562 = tested on: K562
KM12 = tested on: KM12
LOX IMVI = tested on: LOX IMVI
M14 = tested on: M14
MDA-MB-435 = tested on: MDA-MB-435
NCI-H460 = tested on: NCI-H460
NCI/ADR-RES = tested on: NCI/ADR-RES
OVCAR-3 = tested on: OVCAR-3
PC-3 = tested on: PC-3
SF-268 = tested on: SF-268
SF-295 = tested on: SF-295
SK-MEL-28 = tested on: SK-MEL-28
SK-MEL-2 = tested on: SK-MEL-2
UACC-257 = tested on: UACC-257
HCC 2998 = tested on: HCC 2998

Measured: GI50

O=[As](O)(O)c1ccc(/N=N/c2ccc([As](=O)(O)O)cc2)cc1
inactive: 786-0 > 100 µM | A498 > 100 µM | DU-145 > 100 µM | HCT-116 > 100 µM | HT-29 > 100 µM | K562 > 100 µM | KM12 > 100 µM | LOX IMVI > 100 µM | M14 > 100 µM | MDA-MB-435 > 100 µM | NCI-H460 > 100 µM | NCI/ADR-RES > 100 µM | OVCAR-3 > 100 µM | PC-3 > 100 µM | SF-268 > 100 µM | SF-295 > 100 µM | SK-MEL-28 > 100 µM | SK-MEL-2 > 100 µM | UACC-257 > 100 µM

COc1cc(-c2cc(=O)c3c(OC)c(OC)c(OC)c(OC)c3o2)c(OC)c(OC)c1OC
inactive: 786-0 47.5 µM | DU-145 43.4 µM | HCC 2998 49.3 µM | HCT-116 30.7 µM | HT-29 31 µM | K562 60.3 µM | KM12 21.9 µM | LOX IMVI 32.1 µM | M14 51.5 µM | MDA-MB-435 45.8 µM | NCI-H460 36.1 µM | NCI/ADR-RES 17.9 µM | PC-3 14.3 µM | SF-268 63.1 µM | SF-295 43.8 µM | SK-MEL-28 42.5 µM | SK-MEL-2 20.5 µM | UACC-257 42.3 µM

COC(=O)[C@@]12CC[C@]1(C(=O)OC)C1C(C)=CC(=O)O[C@@]12C (stereo not given in full)
inactive: 786-0 > 100 µM | DU-145 > 100 µM | HCC 2998 > 100 µM | HCT-116 > 100 µM | HT-29 > 100 µM | K562 > 100 µM | KM12 > 100 µM | LOX IMVI > 100 µM | M14 > 100 µM | MDA-MB-435 > 100 µM | NCI-H460 > 100 µM | NCI/ADR-RES > 100 µM | OVCAR-3 > 100 µM | PC-3 > 100 µM | SF-268 > 100 µM | SF-295 > 100 µM | SK-MEL-28 > 100 µM | UACC-257 > 100 µM

CC(C)(C)OCC1NC(=O)[C@@H]2Cc3c([nH]c4ccccc34)C(C3CCCCC3)N2C1=O (stereo not given in full)
inactive: 786-0 22.5 µM | A498 32.2 µM | DU-145 34.8 µM | HCT-116 15.3 µM | HT-29 18 µM | K562 27.3 µM | KM12 17.8 µM | LOX IMVI 16.9 µM | M14 19.3 µM | MDA-MB-435 16 µM | NCI/ADR-RES 21.1 µM | OVCAR-3 11.6 µM | PC-3 18.8 µM | SF-268 28.8 µM | SF-295 18.2 µM | SK-MEL-28 22.6 µM | SK-MEL-2 20.7 µM | UACC-257 18.4 µM

CC1(C)C(=O)N(O)C(C)(C)N1N=O
inactive: 786-0 > 10 µM | DU-145 > 10 µM | HCC 2998 > 10 µM | HCT-116 > 10 µM | HT-29 > 10 µM | K562 > 10 µM | KM12 > 10 µM | M14 > 10 µM | MDA-MB-435 > 10 µM | NCI-H460 > 10 µM | NCI/ADR-RES > 10 µM | OVCAR-3 > 10 µM | PC-3 > 10 µM | SF-268 > 10 µM | SF-295 > 10 µM | SK-MEL-2 > 10 µM | UACC-257 > 10 µM

COC(=O)[C@@H]1[C@@H](c2cccc(Cl)c2)[C@H](C(=O)OC)C2(C[C@@]1(C)O)NCCS2 (stereo not given in full)
inactive: 786-0 74.6 µM | A498 > 100 µM | DU-145 32.7 µM | HCT-116 42.5 µM | HT-29 44.2 µM | K562 25.6 µM | KM12 48.8 µM | LOX IMVI 38.2 µM | M14 39.1 µM | MDA-MB-435 52.5 µM | NCI-H460 48.4 µM | NCI/ADR-RES 91.6 µM | OVCAR-3 31.3 µM | PC-3 31.4 µM | SF-268 > 100 µM | SF-295 > 100 µM | SK-MEL-28 77.4 µM | SK-MEL-2 16.6 µM | UACC-257 87.7 µM

O=C1c2ccccc2-c2nc(-c3cccs3)cc3c2c1nc1ccccc13
inactive: 786-0 35.8 µM | DU-145 14.1 µM | HCC 2998 16.7 µM | HCT-116 14.3 µM | HT-29 21.5 µM | K562 13.5 µM | KM12 11.4 µM | LOX IMVI 8.24 µM | M14 3.27 µM | MDA-MB-435 2.01 µM | NCI-H460 4.69 µM | NCI/ADR-RES 74.6 µM | OVCAR-3 2.3 µM | PC-3 12.6 µM | SF-268 12.5 µM | SF-295 27.8 µM | SK-MEL-28 17.5 µM | SK-MEL-2 13.6 µM | UACC-257 14.1 µM

CC1=CC(=O)CC2(C)CCC(C(C)CC(=O)CC(C)C)CC12OO (stereo not given)
inactive: 786-0 10.1 µM and 13.1 µM | A498 22.4 µM and 16.9 µM | DU-145 18 µM and 16 µM | HCT-116 16.2 µM and 16.1 µM | HT-29 17 µM and 20.7 µM | K562 10.9 µM and 5.53 µM | KM12 15.6 µM and 16.9 µM | LOX IMVI 14.6 µM and 16.4 µM | M14 16.5 µM and 17.9 µM | MDA-MB-435 17.5 µM and 18.3 µM | NCI/ADR-RES 24.8 µM and 23.1 µM | PC-3 14.3 µM and 15.7 µM | SF-268 17 µM and 20 µM | SF-295 16.4 µM and 17 µM | SK-MEL-28 18.5 µM and 15.2 µM | SK-MEL-2 16.9 µM and 20.2 µM | UACC-257 17.7 µM and 17.3 µM

COc1cccc(-c2cccc(SC)n2)n1
inactive: 786-0 28.8 µM | DU-145 34.4 µM | HCC 2998 23.4 µM | HCT-116 28.4 µM | HT-29 21.8 µM | K562 26.2 µM | KM12 34 µM | LOX IMVI 33.1 µM | M14 24 µM | MDA-MB-435 26.4 µM | NCI-H460 29 µM | NCI/ADR-RES 28.4 µM | OVCAR-3 20.8 µM | PC-3 38.6 µM | SF-295 34.4 µM | SK-MEL-28 29.6 µM | SK-MEL-2 36.3 µM | UACC-257 21 µM

CC1(C)NC(C(=O)c2ccccc2)=[N+]([O-])C1(O)c1ccccc1 (stereo not given)
inactive: 786-0 > 100 µM | DU-145 > 100 µM | HCC 2998 > 100 µM | HCT-116 74.5 µM | HT-29 > 100 µM | K562 > 100 µM | KM12 > 100 µM | LOX IMVI > 100 µM | M14 > 100 µM | MDA-MB-435 > 100 µM | NCI-H460 > 100 µM | NCI/ADR-RES > 100 µM | OVCAR-3 95.3 µM | PC-3 > 100 µM | SF-268 > 100 µM | SF-295 > 100 µM | SK-MEL-28 > 100 µM | SK-MEL-2 > 100 µM | UACC-257 54.5 µM

COc1ccccc1NC(=S)NNC(=O)c1cc(-c2ccccc2)nc2ccccc12
inactive: 786-0 13.2 µM | DU-145 12.4 µM | HCC 2998 13.6 µM | HCT-116 6.22 µM | HT-29 21.9 µM | K562 6.97 µM | KM12 7.01 µM | M14 11.9 µM | MDA-MB-435 3.18 µM | NCI-H460 13.2 µM | NCI/ADR-RES 12.8 µM | OVCAR-3 4.45 µM | PC-3 10.3 µM | SF-268 17.5 µM | SF-295 4.38 µM | SK-MEL-28 10.4 µM | SK-MEL-2 10.4 µM | UACC-257 18.2 µM
